The NIST ThermoML archive (doi:10.1021/acs.jced.5b00348)
Where “and” joins values, the source holds several entries; their conditions need not be identical. Identical values can stand only once.

Conditions: for vapor or sublimation pressure: Closed cell (Static) method

FC(F)(F)/C=C/Cl [(E)-1-chloro-3,3,3-trifluoroprop-1-ene]
Conditions	mass density	speed of sound
379.78 K, 201.47 kPa, Gas	–	156.72 m/s
379.78 K, 201.53 kPa, Gas	–	156.72 m/s
379.78 K, 407.41 kPa, Gas	–	151.7 m/s
379.78 K, 407.46 kPa, Gas	–	151.7 m/s
379.78 K, 407.5 kPa, Gas	–	151.7 m/s
379.78 K, 407.74 kPa, Gas	–	151.69 m/s
379.78 K, 407.82 kPa, Gas	–	151.69 m/s
379.78 K, 407.85 kPa, Gas	–	151.69 m/s
379.78 K, 568.62 kPa, Gas	–	147.47 m/s
379.78 K, 796.76 kPa, Gas	–	140.89 m/s
379.78 K, 796.81 kPa, Gas	–	140.89 m/s
379.79 K, 407.85 kPa, Gas	–	151.69 m/s
379.79 K, 796.72 kPa, Gas	–	140.89 m/s
379.79 K, 959.4 kPa, Gas	–	135.64 m/s
379.79 K, 959.42 kPa, Gas	–	135.64 m/s
379.79 K, 959.44 kPa, Gas	–	135.64 m/s
380 K, 2975.2 kPa, Fluid (supercritical or subcritical phases)	1043.29 kg/m3	–
380 K, 3879.4 kPa, Liquid	1051.51 kg/m3	–
380.03 K, 547.9 kPa, Gas	25.032 kg/m3	–
380.03 K, 548.2 kPa, Gas	25.047 kg/m3	–
380.04 K, 428.4 kPa, Gas	19.095 kg/m3	–
383.99 K, 1844.2 kPa, Fluid (supercritical or subcritical phases)	1016.28 kg/m3	–
383.99 K, 4425 kPa, Fluid (supercritical or subcritical phases)	1042.8 kg/m3	–
385 K, 5748.6 kPa, Liquid	1050.89 kg/m3	–
389.93 K, 1284.7 kPa, Gas	67.575 kg/m3	–
390 K, 7622.7 kPa, Liquid	1050.32 kg/m3	–
390.03 K, 572 kPa, Gas	25.32 kg/m3	–
390.03 K, 572.2 kPa, Gas	25.33 kg/m3	–
390.04 K, 448.1 kPa, Gas	19.387 kg/m3	–
391.99 K, 2100.9 kPa, Fluid (supercritical or subcritical phases)	985.96 kg/m3	–
391.99 K, 4502.1 kPa, Fluid (supercritical or subcritical phases)	1015.42 kg/m3	–
395 K, 2051.4 kPa, Liquid	971.55 kg/m3	–
395 K, 4073.9 kPa, Liquid	999.34 kg/m3	–
395 K, 6005.8 kPa, Liquid	1020.09 kg/m3	–
395 K, 7979.4 kPa, Liquid	1037.8 kg/m3	–
395 K, 9495 kPa, Liquid	1049.74 kg/m3	–
399.68 K, 81.08 kPa, Gas	–	163.78 m/s
399.69 K, 81.05 kPa, Gas	–	163.76 m/s
399.69 K, 81.08 kPa, Gas	–	163.78 m/s
399.7 K, 81.05 kPa, Gas	–	163.76 m/s
399.7 K, 200.81 kPa, Gas	–	161.43 m/s
399.7 K, 200.89 kPa, Gas	–	161.43 m/s
399.71 K, 200.94 kPa, Gas	–	161.42 m/s
399.71 K, 201.02 kPa, Gas	–	161.42 m/s
399.72 K, 579.09 kPa, Gas	–	153.49 m/s
399.72 K, 579.15 kPa, Gas	–	153.49 m/s
399.72 K, 579.18 kPa, Gas	–	153.49 m/s
399.73 K, 1002.2 kPa, Gas	–	143.33 m/s
399.74 K, 1002.2 kPa, Gas	–	143.33 m/s
399.74 K, 1416.7 kPa, Gas	–	131.29 m/s and 131.29 m/s
399.75 K, 1416.7 kPa, Gas	–	131.29 m/s and 131.29 m/s
399.93 K, 1343.9 kPa, Gas	67.621 kg/m3	–
399.94 K, 1613 kPa, Gas	87.993 kg/m3	–
399.98 K, 2020.5 kPa, Fluid (supercritical or subcritical phases)	946.51 kg/m3	–
399.98 K, 2500.1 kPa, Fluid (supercritical or subcritical phases)	955.38 kg/m3	–
399.98 K, 4501.4 kPa, Fluid (supercritical or subcritical phases)	985.13 kg/m3	–
400.03 K, 468.2 kPa, Gas	19.679 kg/m3	–
400.03 K, 596.5 kPa, Gas	25.617 kg/m3 and 25.615 kg/m3	–
404.94 K, 3251 kPa, Fluid (supercritical or subcritical phases)	944.76 kg/m3	–
409.92 K, 1401.3 kPa, Gas	67.63 kg/m3	–
409.92 K, 1693.1 kPa, Gas	87.977 kg/m3	–
409.95 K, 2426 kPa, Fluid (supercritical or subcritical phases)	899.12 kg/m3	–
409.95 K, 4566.2 kPa, Fluid (supercritical or subcritical phases)	944.3 kg/m3	–
410.01 K, 488.6 kPa, Gas	19.972 kg/m3	–
410.01 K, 620.7 kPa, Gas	25.887 kg/m3 and 25.885 kg/m3	–
414.94 K, 3540.5 kPa, Fluid (supercritical or subcritical phases)	898.69 kg/m3	–
419.55 K, 79.93 kPa, Gas	–	167.87 m/s
419.56 K, 79.92 kPa, Gas	–	167.86 m/s
419.56 K, 79.93 kPa, Gas	–	167.87 m/s
419.56 K, 79.94 kPa, Gas	–	167.88 m/s
419.56 K, 79.95 kPa, Gas	–	167.88 m/s and 167.89 m/s
419.56 K, 196.42 kPa, Gas	–	165.91 m/s
419.56 K, 196.56 kPa, Gas	–	165.91 m/s and 165.91 m/s
419.57 K, 196.49 kPa, Gas	–	165.9 m/s and 165.9 m/s
419.57 K, 196.51 kPa, Gas	–	165.9 m/s
419.57 K, 196.56 kPa, Gas	–	165.9 m/s
419.57 K, 196.57 kPa, Gas	–	165.9 m/s
419.57 K, 196.62 kPa, Gas	–	165.9 m/s
419.57 K, 196.63 kPa, Gas	–	165.91 m/s
419.58 K, 196.44 kPa, Gas	–	165.9 m/s
419.58 K, 196.51 kPa, Gas	–	165.9 m/s
419.58 K, 398.05 kPa, Gas	–	162.39 m/s
419.58 K, 398.07 kPa, Gas	–	162.39 m/s
419.58 K, 398.08 kPa, Gas	–	162.39 m/s
419.59 K, 803.55 kPa, Gas	–	154.82 m/s
419.59 K, 803.59 kPa, Gas	–	154.82 m/s
419.59 K, 803.61 kPa, Gas	–	154.82 m/s
419.59 K, 1212.4 kPa, Gas	–	146.32 m/s
419.6 K, 1212.4 kPa, Gas	–	146.32 m/s
419.6 K, 1723.5 kPa, Gas	–	133.88 m/s and 133.89 m/s
419.61 K, 2072 kPa, Gas	–	123.58 m/s
419.61 K, 2072.1 kPa, Gas	–	123.58 m/s
419.62 K, 2072.1 kPa, Gas	–	123.58 m/s
419.63 K, 2072.3 kPa, Gas	–	123.59 m/s
419.65 K, 2072.5 kPa, Gas	–	123.6 m/s
419.67 K, 2072.7 kPa, Gas	–	123.61 m/s
419.68 K, 2072.8 kPa, Gas	–	123.62 m/s
419.69 K, 2072.8 kPa, Gas	–	123.62 m/s
419.69 K, 2072.9 kPa, Gas	–	123.63 m/s
419.9 K, 1457.6 kPa, Gas	67.627 kg/m3	–
419.92 K, 1771.2 kPa, Gas	87.947 kg/m3	–
419.94 K, 4667.5 kPa, Fluid (supercritical or subcritical phases)	898.26 kg/m3	–
419.95 K, 2831.8 kPa, Fluid (supercritical or subcritical phases)	841.35 kg/m3	–
419.99 K, 510 kPa, Gas	20.295 kg/m3	–
420 K, 508.9 kPa, Gas	20.248 kg/m3	–
420 K, 645.1 kPa, Gas	26.148 kg/m3 and 26.149 kg/m3	–
424.94 K, 3746.2 kPa, Fluid (supercritical or subcritical phases)	841 kg/m3	–
429.9 K, 1513.1 kPa, Gas	67.627 kg/m3	–
429.9 K, 1847.8 kPa, Gas	87.931 kg/m3	–
429.94 K, 3475.7 kPa, Fluid (supercritical or subcritical phases)	782.51 kg/m3	–
429.94 K, 4675.4 kPa, Fluid (supercritical or subcritical phases)	840.63 kg/m3	–
430 K, 530.5 kPa, Gas	20.558 kg/m3	–
430 K, 669.6 kPa, Gas	26.403 kg/m3	–
434.94 K, 4229.4 kPa, Fluid (supercritical or subcritical phases)	782.14 kg/m3	–
439.89 K, 1922.8 kPa, Gas	87.898 kg/m3	–
439.9 K, 1568.8 kPa, Gas	67.676 kg/m3	–
439.95 K, 1137.4 kPa, Gas	46.158 kg/m3	–
439.95 K, 1568.5 kPa, Gas	67.645 kg/m3	–
440 K, 255.4 kPa, Gas	9.339 kg/m3	–
440 K, 550.9 kPa, Gas	20.806 kg/m3	–
440 K, 551.6 kPa, Gas	20.832 kg/m3	–
440 K, 694.2 kPa, Gas	26.651 kg/m3	–
440 K, 694.3 kPa, Gas	26.653 kg/m3	–
443.94 K, 475.9 kPa, Fluid (supercritical or subcritical phases)	17.642 kg/m3	–
443.94 K, 547.2 kPa, Fluid (supercritical or subcritical phases)	20.44 kg/m3	–
443.94 K, 1352.4 kPa, Fluid (supercritical or subcritical phases)	55.612 kg/m3	–
443.94 K, 1768.1 kPa, Fluid (supercritical or subcritical phases)	77.205 kg/m3	–
443.94 K, 2074.3 kPa, Fluid (supercritical or subcritical phases)	95.28 kg/m3	–
443.94 K, 2390.8 kPa, Fluid (supercritical or subcritical phases)	116.63 kg/m3	–
443.94 K, 2690.9 kPa, Fluid (supercritical or subcritical phases)	140.42 kg/m3	–
443.94 K, 2893.8 kPa, Fluid (supercritical or subcritical phases)	159.35 kg/m3	–
443.94 K, 3102.5 kPa, Fluid (supercritical or subcritical phases)	182.38 kg/m3	–
443.94 K, 3197.9 kPa, Fluid (supercritical or subcritical phases)	194.61 kg/m3	–
443.94 K, 3199.8 kPa, Fluid (supercritical or subcritical phases)	194.61 kg/m3	–
443.94 K, 3703.8 kPa, Fluid (supercritical or subcritical phases)	306.77 kg/m3	–
443.94 K, 3908.6 kPa, Fluid (supercritical or subcritical phases)	504.42 kg/m3	–
443.95 K, 3858 kPa, Fluid (supercritical or subcritical phases)	426.27 kg/m3	–
443.95 K, 4009.4 kPa, Fluid (supercritical or subcritical phases)	593.8 kg/m3	–
443.95 K, 4514.9 kPa, Fluid (supercritical or subcritical phases)	704.98 kg/m3	–
443.95 K, 5618.8 kPa, Fluid (supercritical or subcritical phases)	781.53 kg/m3	–

Liquid
Conditions	vapor or sublimation pressure [kPa]
380.03 K	1207.4
390.04 K	1480.7
400.04 K	1798.9
410.03 K	2166.7
415.03 K	2371
420 K	2589.3
424.98 K	2823.8
429.91 K	3073.2
429.98 K	3076.8
434.91 K	3346
434.97 K	3349.8
435.91 K	3403.5
437.91 K	3521
